Data reported in PubChem BioAssay (NCI).
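Results reflect a 48-hour exposure of cells in 96-well plates to compound at five concentrations. GI50: concentration for 50% inhibition of growth. Definition used: TGI = concentration required for complete inhibition of growth.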

Legend:
Assay in all cases: NCI tumour cell line growth inhibition, 48 h
SK-MEL-2 melanoma = system: SK-MEL-2 melanoma
SK-MEL-28 melanoma = system: SK-MEL-28 melanoma
HOP-62 NSCLC = system: HOP-62 NSCLC
KM20L2 colon = system: KM20L2 colon
SK-MEL-5 melanoma = system: SK-MEL-5 melanoma
SNB-75 CNS = system: SNB-75 CNS
SN12C renal = system: SN12C renal
OVCAR-4 ovarian = system: OVCAR-4 ovarian
HCT-116 colon = system: HCT-116 colon
SF-295 CNS = system: SF-295 CNS
DLD-1 colon = system: DLD-1 colon
SW-620 colon = system: SW-620 colon
CAKI-1 renal = system: CAKI-1 renal
HCT-15 colon = system: HCT-15 colon
DU-145 prostate = system: DU-145 prostate
CCRF-CEM leukemia = system: CCRF-CEM leukemia
UACC-62 melanoma = system: UACC-62 melanoma
U251 CNS = system: U251 CNS
KM12 colon = system: KM12 colon
K-562 leukemia = system: K-562 leukemia
LOX IMVI melanoma = system: LOX IMVI melanoma
M14 melanoma = system: M14 melanoma
LXFL 529 NSCLC = system: LXFL 529 NSCLC
SNB-78 CNS = system: SNB-78 CNS
786-0 renal = system: 786-0 renal
COLO 205 colon = system: COLO 205 colon
A549 NSCLC = system: A549 NSCLC
TK-10 renal = system: TK-10 renal
UO-31 renal = system: UO-31 renal
HOP-92 NSCLC = system: HOP-92 NSCLC
DMS 273 small cell lung = system: DMS 273 small cell lung
A498 renal = system: A498 renal
IGROV1 ovarian = system: IGROV1 ovarian
SNB-19 CNS = system: SNB-19 CNS
NCI-H460 lung = system: NCI-H460 lung
MDA-MB-435 = system: MDA-MB-435
RXF 393 renal = system: RXF 393 renal
XF 498 CNS = system: XF 498 CNS
SF-539 CNS = system: SF-539 CNS
M19-MEL melanoma = system: M19-MEL melanoma
MALME-3M melanoma = system: MALME-3M melanoma
T-47D breast = system: T-47D breast
HT29 colon = system: HT29 colon
MOLT-4 leukemia = system: MOLT-4 leukemia
EKVX NSCLC = system: EKVX NSCLC
PC-3 prostate = system: PC-3 prostate
NCI-H23 lung = system: NCI-H23 lung
OVCAR-5 ovarian = system: OVCAR-5 ovarian
OVCAR-3 ovarian = system: OVCAR-3 ovarian
SK-OV-3 ovarian = system: SK-OV-3 ovarian
ACHN renal = system: ACHN renal
DMS 114 small cell lung = system: DMS 114 small cell lung
HCC-2998 colon = system: HCC-2998 colon
NCI/ADR-RES ovarian = system: NCI/ADR-RES ovarian
NCI-H522 lung = system: NCI-H522 lung
SF-268 CNS = system: SF-268 CNS
OVCAR-8 ovarian = system: OVCAR-8 ovarian
NCI-H226 lung = system: NCI-H226 lung
UACC-257 melanoma = system: UACC-257 melanoma
RXF-631 renal = system: RXF-631 renal
HL-60(TB) leukemia = system: HL-60(TB) leukemia
HOP-18 NSCLC = system: HOP-18 NSCLC
RPMI-8226 leukemia = system: RPMI-8226 leukemia
SR leukemia = system: SR leukemia

`CC(C)(C)CC(C)(C)NCC(O)COc1ccc(C(C)(C)c2ccc(OCC(O)CNC(C)(C)CC(C)(C)C)cc2)cc1` (configuration not stated) was tested, and the TGI (SK-MEL-2 melanoma) was 3.28 µM, the TGI (SK-MEL-28 melanoma) was 1.85 µM and the TGI (HOP-62 NSCLC) was 3.19 µM. For the same compound, the TGI (KM20L2 colon) was 2.88 µM, the TGI (SK-MEL-5 melanoma) was 2.67 µM and the TGI (SNB-75 CNS) was 2.79 µM. The TGI (SN12C renal) was 3.04 µM, the TGI (OVCAR-4 ovarian) was 3.23 µM and the TGI (HCT-116 colon) was 5.38 µM. For the same compound, the TGI (SF-295 CNS) was 3.21 µM, the TGI (DLD-1 colon) was 2.06 µM and the TGI (SW-620 colon) was 0.463 µM. It also gave a TGI (CAKI-1 renal) of 3.13 µM, a TGI (HCT-15 colon) of 2.69 µM and a GI50 (DU-145 prostate) of 1.39 µM. For the same compound, the TGI (DU-145 prostate) was 2.75 µM, the TGI (CCRF-CEM leukemia) was 1.03 µM and the TGI (UACC-62 melanoma) was 3.31 µM. It also gave a TGI (U251 CNS) of 2.2 µM, a TGI (KM12 colon) of 2.31 µM and a TGI (K-562 leukemia) of 1.16 µM. The TGI (LOX IMVI melanoma) was 1.35 µM, the TGI (M14 melanoma) was 1.49 µM and the TGI (LXFL 529 NSCLC) was 1.3 µM. It also gave a TGI (SNB-78 CNS) of 3.63 µM, a TGI (786-0 renal) of 2.77 µM and a TGI (COLO 205 colon) of 1.47 µM. It also gave a TGI (A549 NSCLC) of 3.02 µM, a GI50 (TK-10 renal) of 1.75 µM and a TGI (TK-10 renal) of 3.32 µM. The TGI (UO-31 renal) was 2.98 µM, the TGI (HOP-92 NSCLC) was 3 µM and the TGI (DMS 273 small cell lung) was 2.28 µM. For the same compound, the TGI (A498 renal) was 3.03 µM, the TGI (IGROV1 ovarian) was 3.23 µM and the TGI (SNB-19 CNS) was 3.01 µM. It also gave a TGI (NCI-H460 lung) of 0.782 µM, a GI50 (MDA-MB-435) of 0.513 µM and a TGI (MDA-MB-435) of 1.73 µM. For the same compound, the TGI (RXF 393 renal) was 2.75 µM, the TGI (XF 498 CNS) was 3.02 µM and the TGI (SF-539 CNS) was 3.33 µM. The TGI (M19-MEL melanoma) was 2.88 µM, the TGI (MALME-3M melanoma) was 2.96 µM and the GI50 (T-47D breast) was 1.66 µM. The TGI (T-47D breast) was 3.48 µM, the TGI (HT29 colon) was 1.42 µM and the TGI (MOLT-4 leukemia) was 1.26 µM. It also gave a TGI (EKVX NSCLC) of 3.08 µM, a GI50 (PC-3 prostate) of 1.88 µM and a TGI (PC-3 prostate) of 3.38 µM. For the same compound, the TGI (NCI-H23 lung) was 3.14 µM, the TGI (OVCAR-5 ovarian) was 3.32 µM and the TGI (OVCAR-3 ovarian) was 2.47 µM. For the same compound, the TGI (SK-OV-3 ovarian) was 3.24 µM, the TGI (ACHN renal) was 3.17 µM and the TGI (DMS 114 small cell lung) was 3.21 µM. For the same compound, the TGI (HCC-2998 colon) was 1.21 µM, the GI50 (NCI/ADR-RES ovarian) was 1.41 µM and the TGI (NCI/ADR-RES ovarian) was 2.84 µM. For the same compound, the TGI (NCI-H522 lung) was 3.02 µM, the TGI (SF-268 CNS) was 3.06 µM and the TGI (OVCAR-8 ovarian) was 3.25 µM. The TGI (NCI-H226 lung) was 3.51 µM.
With `Cc1nc(-n2nc(-c3ccccc3)cc2-c2ccccc2)sc1C(=O)CC(=O)C(=O)Nc1ccc(O)cc1` the TGI (SK-MEL-2 melanoma) was > 100 µM, the TGI (UACC-257 melanoma) was > 100 µM and the TGI (HOP-62 NSCLC) was > 100 µM. The TGI (KM20L2 colon) was > 100 µM, the TGI (SNB-75 CNS) was > 100 µM and the TGI (RXF-631 renal) was > 100 µM. The TGI (SN12C renal) was > 100 µM, the TGI (OVCAR-4 ovarian) was > 100 µM and the TGI (HCT-116 colon) was > 100 µM. The TGI (SF-295 CNS) was > 100 µM, the TGI (DLD-1 colon) was > 100 µM and the TGI (SW-620 colon) was > 100 µM. For the same compound, the TGI (CAKI-1 renal) was > 100 µM, the TGI (HCT-15 colon) was > 100 µM and the TGI (CCRF-CEM leukemia) was > 100 µM. For the same compound, the TGI (UACC-62 melanoma) was > 100 µM, the TGI (U251 CNS) was > 100 µM and the TGI (KM12 colon) was > 100 µM. The TGI (K-562 leukemia) was > 100 µM, the TGI (LOX IMVI melanoma) was > 100 µM and the TGI (M14 melanoma) was > 100 µM. For the same compound, the TGI (LXFL 529 NSCLC) was > 100 µM, the TGI (SNB-78 CNS) was > 100 µM and the TGI (786-0 renal) was > 100 µM. The TGI (COLO 205 colon) was > 100 µM, the TGI (A549 NSCLC) was > 100 µM and the TGI (TK-10 renal) was > 100 µM. The TGI (UO-31 renal) was > 100 µM, the TGI (DMS 273 small cell lung) was > 100 µM and the TGI (A498 renal) was > 100 µM. The TGI (IGROV1 ovarian) was > 100 µM, the TGI (SNB-19 CNS) was > 100 µM and the TGI (RXF 393 renal) was > 100 µM. The TGI (SF-539 CNS) was > 100 µM, the TGI (MALME-3M melanoma) was > 100 µM and the TGI (HT29 colon) was > 100 µM. The TGI (MOLT-4 leukemia) was > 100 µM, the TGI (EKVX NSCLC) was > 100 µM and the TGI (NCI-H23 lung) was > 100 µM. For the same compound, the TGI (OVCAR-5 ovarian) was > 100 µM, the TGI (OVCAR-3 ovarian) was > 100 µM and the TGI (SK-OV-3 ovarian) was > 100 µM. The TGI (ACHN renal) was > 100 µM, the TGI (DMS 114 small cell lung) was > 100 µM and the TGI (HCC-2998 colon) was > 100 µM. For the same compound, the TGI (HL-60(TB) leukemia) was > 100 µM, the TGI (HOP-18 NSCLC) was > 100 µM and the TGI (RPMI-8226 leukemia) was > 100 µM. The TGI (NCI-H522 lung) was > 100 µM, the TGI (SR leukemia) was > 100 µM and the TGI (SF-268 CNS) was > 100 µM. For the same compound, the TGI (OVCAR-8 ovarian) was > 100 µM and the TGI (NCI-H226 lung) was > 100 µM.
